≈ marks a conversion by molar mass, not a printed value.

The term MIC denotes the smallest concentration in the dilution series that meets the test's criterion for growth inhibition.

Common to all, as to assay type: cell-based
For assay [1], the system named is Wild-type P. aeruginosa PAO1. As to the kind of experiment: Broth microdilution MIC, wild-type P. aeruginosa PAO1. To be noted: Pseudomonas aeruginosa; wild-type P. aeruginosa PAO1, 37° C., 18 h; read-out: PAO1 WT MIC. On the procedure: (§1) Exemplary compounds from the above Examples were tested to determine their minimum inhibitory concentration (MIC) for exemplary strains of Escherichia and Pseudomonas bacteria using broth microdilution methods. Assay procedures and results are described below.
(§2) Broth microdilution assays were conducted according to Clinical and Laboratory Standards Institute guidelines (CLSI, M07-A^11: Clinical and Laboratory Standards Institute. Methods for Dilution Antimicrobial Susceptibility Tests for Bacteria that Grow Aerobically; Approved Standard-11th Edition. Wayne, PA: CLSI, 2018). Briefly, bacterial suspensions were adjusted to a density equivalent to a 0.5 McFarland standard and diluted in sterile, cation-adjusted Mueller-Hinton broth (Beckton Dickinson) to yield a final inoculum between 2×10^5 and 8×10^5 colony-forming units (CFU)/mL. An inoculum volume of 98 μL was added to wells containing 2 μL of 2-fold serial dilutions of drug (prepared in DMSO). All inoculated microdilution trays were incubated in ambient air at 37° C. for 18 h. […] Performance of the assay was monitored by the use of laboratory quality-control strains (S. aureus ATCC 29213 and P. aeruginosa ATCC 27853) and levofloxacin, a compound with a defined MIC spectrum, in accordance with CLSI guidelines (CLSI, M100Ed29: Clinical and Laboratory Standards Institute. Performance Standards for Antimicrobial Susceptibility Testing, 29th Edition. Wayne, PA: CLSI, 2018).
(§3) Multiple enterobacteriaceae strains were tested, including both wild-type strains and multi-drug resistance pump deficient mutants. Specific strains tested included the following: • Wild-type P. aeruginosa PAO1, • P. aeruginosa PAO1 ΔmexABoprM—Disabled multi-drug efflux system Δ(MexAB-OprM), • P. aeruginosa PAO397—PAO1Δ(mexAB-oprM) Δ(mexCD-oprJ) Δ(mexEF-oprN) Δ(mexJK) Δ(mexXY) ΔopmH, • P. aeruginosa LESB58—Clinical isolate; colistin-resistant, isolated in the United Kingdom in 1988 from a patient with cystic fibrosis • E. coli JW0452-3 (BW25113 JacrA::kan)—Disabled multi-drug efflux system (AcrAB-TolC).
(§4) Experimental results are provided in Table 11, which provides MIC values for wild-type P. aeruginosa PAO1 (“PAO1 WT MIC”), P. aeruginosa PAO ΔmexABoprM (“PAO1 KO MIC”), P. aeruginosa PAO397 (“PAO397 KO MIC”), P. aeruginosa LESB58 (“LESB58”), and E. coli JW0452-3 (BW25113 JacrA::kan) (“E. coli KO MIC”).
For orientation: Dilution methods test growth across graded concentrations, often in twofold steps.

The test system of the next assay is P. aeruginosa LESB58. As to the kind of experiment: Broth microdilution MIC, P. aeruginosa LESB58. To be noted: Pseudomonas aeruginosa; P. aeruginosa LESB58 clinical isolate, colistin-resistant, 37° C., 18 h. As to the method: as §1, §2, §3, §4
A further assay concerns P. aeruginosa PAO397. Description: Broth microdilution MIC, P. aeruginosa PAO397. The settings on record: Pseudomonas aeruginosa, PAO397, 18 h, read-out: PAO397 KO MIC. As to the method: as §1, §2, §3, §4
For assay [2], the system named is P. aeruginosa PAO1 ΔmexABoprM. As to the kind of experiment: Broth microdilution MIC, P. aeruginosa PAO1 ΔmexABoprM. To be noted: Pseudomonas aeruginosa, PAO1, 18 h, read-out: PAO1 KO MIC. As to the method:
as §1, §2, §3, §4

`N#Cc1ccc(CN(Cc2nnc(N)o2)C(=O)COc2cccc(Cl)c2)c(F)c1` [compound 20]: the MIC in assay [1] is more than 64 µg/mL; against P. aeruginosa LESB58 it was more than 64 µg/mL; with P. aeruginosa PAO397, 1 to 16 µg/mL (≈ 2.4 to 38.5 µM); in assay [2], 16 to 64 µg/mL (≈ 38.5 to 154 µM).
Consider `CCc1c(F)cccc1OCC(=O)N(Cc1nnc(N)o1)Cc1ccc(C#N)cc1F` [compound 41], for which the MIC in assay [1] was more than 64 µg/mL; in the assay with P. aeruginosa LESB58, 1 to 16 µg/mL (≈ 2.34 to 37.4 µM); in the assay on P. aeruginosa PAO397, less than 1 µg/mL; in assay [2], less than 1 µg/mL.
For the molecule `N#Cc1ccc(CN(Cc2nnc(N)o2)C(=O)CSc2ccccc2Cl)cn1` [compound 14], the MIC in assay [1] is more than 64 µg/mL; with P. aeruginosa LESB58 it was 16 to 64 µg/mL (≈ 38.6 to 154 µM); in the assay on P. aeruginosa PAO397, less than 1 µg/mL; in assay [2] it was 1 to 16 µg/mL (≈ 2.41 to 38.6 µM).
On the same counts, the results for `N#Cc1ccc(CN(Cc2nnc(N)o2)C(=O)CSc2ccccc2OC(F)(F)F)c(F)c1` [compound 56] are more than 64 µg/mL, more than 64 µg/mL, less than 1 µg/mL and 16 to 64 µg/mL (≈ 33.2 to 133 µM).
On the same counts, the results for `N#Cc1ccc(CN(Cc2nnc(N)o2)C(=O)CSc2cc(F)cc(F)c2Cl)c(F)c1` [compound 55] are 1 to 16 µg/mL (≈ 2.14 to 34.2 µM), 1 to 16 µg/mL (≈ 2.14 to 34.2 µM), less than 1 µg/mL and less than 1 µg/mL.
As for `N#Cc1ccc(CN(Cc2nnc(N)o2)C(=O)COc2cc(F)cc(F)c2Cl)cn1` [Compound No. 18, N-((5-amino-1,3,4-oxadiazol-2-yl)methyl)-2-(2-chloro-3,5-difluorophenoxy)-N-((6-cyanopyridin-3-yl)methyl)acetamide], the MIC was more than 64 µg/mL in assay [1], more than 64 µg/mL in the assay on P. aeruginosa LESB58, 1 to 16 µg/mL (≈ 2.3 to 36.8 µM) with P. aeruginosa PAO397 and 1 to 16 µg/mL (≈ 2.3 to 36.8 µM) in assay [2].
Take `CCc1ccccc1OCC(=O)N(Cc1nnc(N)o1)Cc1ccc(C#N)cc1F` [compound 37]: the MIC is more than 64 µg/mL in assay [1], 16 to 64 µg/mL (≈ 39.1 to 156 µM) in the assay with P. aeruginosa LESB58, less than 1 µg/mL in the assay with P. aeruginosa PAO397 and 1 to 16 µg/mL (≈ 2.44 to 39.1 µM) in assay [2].
On to `N#Cc1ccc(CN(Cc2c[nH]cn2)C(=O)CSc2ccccc2Cl)cc1` [compound 43], for which the MIC was more than 64 µg/mL in assay [1], 1 to 16 µg/mL (≈ 2.52 to 40.3 µM) with P. aeruginosa PAO397 and more than 64 µg/mL in assay [2].
Consider `N#Cc1ccc(CN(Cc2nnc(N)o2)C(=O)CSc2cc(CCO)ccc2Cl)c(F)c1` [Compound No. 63, N-[(5-Amino-1,3,4-oxadiazol-2-yl)methyl]-2-[2-chloro-5-(2-hydroxyethyl)phenyl]sulfanyl-N-[(4-cyano-2-fluoro-phenyl)methyl]acetamide], for which the MIC was more than 64 µg/mL in assay [1], 16 to 64 µg/mL (≈ 33.6 to 134 µM) against P. aeruginosa LESB58, less than 1 µg/mL in the assay with P. aeruginosa PAO397 and 1 to 16 µg/mL (≈ 2.1 to 33.6 µM) in assay [2].
Taken in the same sequence, the figures for `CCc1ccc(F)cc1OCC(=O)N(Cc1nnc(N)o1)Cc1ccc(C#N)cc1F` [compound 38] were 16 to 64 µg/mL (≈ 37.4 to 150 µM), 16 to 64 µg/mL (≈ 37.4 to 150 µM), less than 1 µg/mL and 1 to 16 µg/mL (≈ 2.34 to 37.4 µM).
Take `N#Cc1ccc(CN(Cc2nnc(O)o2)C(=O)CSc2ccccc2Cl)cc1` [Compound No. 66, 2-(2-Chlorophenyl)sulfanyl-N-[(4-cyanophenyl)methyl]-N-[(5-hydroxy-1,3,4-oxadiazol-2-yl)methyl]acetamide]: the values for the MIC (in assay [1]; in the assay on P. aeruginosa PAO397; in assay [2]) were more than 64 µg/mL, less than 1 µg/mL and 1 to 16 µg/mL (≈ 2.41 to 38.6 µM), respectively.
Regarding `CCc1ccccc1SCC(=O)N(Cc1nnc(N)o1)Cc1ccc(C#N)cc1F` [compound 42], the MIC is 16 to 64 µg/mL (≈ 37.6 to 150 µM) in assay [1], 1 to 16 µg/mL (≈ 2.35 to 37.6 µM) with P. aeruginosa LESB58, less than 1 µg/mL in the assay on P. aeruginosa PAO397 and 1 to 16 µg/mL (≈ 2.35 to 37.6 µM) in assay [2].
Take `N#Cc1ccc(CN(Cc2nnc(N)o2)C(=O)CSc2ccccc2Cl)c(F)c1` [compound 13]: the MIC is 16 to 64 µg/mL (≈ 37 to 148 µM) in assay [1], 1 to 16 µg/mL (≈ 2.32 to 37 µM) in the assay on P. aeruginosa LESB58, less than 1 µg/mL in the assay on P. aeruginosa PAO397 and 1 to 16 µg/mL (≈ 2.32 to 37 µM) in assay [2].
Consider `N#Cc1ccc(CN(Cc2nnc(N)o2)C(=O)COc2cc(F)cc(F)c2Cl)c(F)c1` [Compound No. 31, N-[(5-Amino-1,3,4-oxadiazol-2-yl)methyl]-2-(2-chloro-3,5-difluoro-phenoxy)-N-[(4-cyano-2-fluoro-phenyl)methyl]acetamide], for which the minimal inhibitory concentration (MIC) in assay [1] is more than 64 µg/mL; in the assay with P. aeruginosa LESB58, 1 to 16 µg/mL (≈ 2.21 to 35.4 µM); with P. aeruginosa PAO397, less than 1 µg/mL; in assay [2], 1 to 16 µg/mL (≈ 2.21 to 35.4 µM).
`N#Cc1cc(F)c(CN(Cc2nnc(N)o2)C(=O)CSc2cccc(F)c2Cl)c(F)c1` [compound 25]: the MIC is 1 to 16 µg/mL (≈ 2.14 to 34.2 µM) in assay [1], 1 to 16 µg/mL (≈ 2.14 to 34.2 µM) in the assay with P. aeruginosa LESB58, less than 1 µg/mL with P. aeruginosa PAO397 and 1 to 16 µg/mL (≈ 2.14 to 34.2 µM) in assay [2].
With `Nc1nnc(CN(Cc2ccc(=O)[nH]c2)C(=O)CSc2ccccc2Cl)o1` [compound 29], the MIC in assay [1] was more than 64 µg/mL; in the assay on P. aeruginosa PAO397, 1 to 16 µg/mL (≈ 2.46 to 39.4 µM); in assay [2] it was more than 64 µg/mL.
As to `N#Cc1ccc(CN(Cc2nnc(CN)o2)C(=O)CSc2ccccc2Cl)cc1` [Compound No. 67, N-[[5-(Aminomethyl)-1,3,4-oxadiazol-2-yl]methyl]-2-(2-chlorophenyl)sulfanyl-N-[(4-cyanophenyl)methyl]acetamide], the MIC was more than 64 µg/mL in assay [1], 1 to 16 µg/mL (≈ 2.34 to 37.4 µM) in the assay with P. aeruginosa PAO397 and 16 to 64 µg/mL (≈ 37.4 to 150 µM) in assay [2].
On to `N#Cc1ccc(CN(Cc2nnc(N)o2)C(=O)CSc2cccc(F)c2Cl)cc1` [compound 52], for which the MIC in assay [1] was more than 64 µg/mL; with P. aeruginosa LESB58 it was 1 to 16 µg/mL (≈ 2.32 to 37 µM); in the assay on P. aeruginosa PAO397 it was less than 1 µg/mL; in assay [2] it was 1 to 16 µg/mL (≈ 2.32 to 37 µM).
As for `N#Cc1ccc(CN(Cc2nnc(N)o2)C(=O)COc2ccccc2OC(F)(F)F)c(F)c1` [compound 39], the MIC in assay [1] was more than 64 µg/mL; in the assay with P. aeruginosa LESB58, more than 64 µg/mL; with P. aeruginosa PAO397, 1 to 16 µg/mL (≈ 2.15 to 34.4 µM); in assay [2] it was 16 to 64 µg/mL (≈ 34.4 to 138 µM).
As to `CCc1c(F)cc(F)cc1OCC(=O)N(Cc1nnc(N)o1)Cc1ccc(C#N)cc1F` [Compound No. 64, N-[(5-Amino-1,3,4-oxadiazol-2-yl)methyl]-N-[(4-cyano-2-fluoro-phenyl)methyl]-2-(2-ethyl-3,5-difluoro-phenoxy)acetamide], the minimal inhibitory concentration (MIC) in assay [1] is 16 to 64 µg/mL (≈ 35.9 to 144 µM); in the assay with P. aeruginosa LESB58, 1 to 16 µg/mL (≈ 2.25 to 35.9 µM); in the assay on P. aeruginosa PAO397, less than 1 µg/mL; in assay [2], less than 1 µg/mL.
Turning to `CCc1ccccc1SCC(=O)N(Cc1ccc(C#N)cc1)Cc1nnc(N)o1` [Compound No. 10], the MIC in assay [1] is more than 64 µg/mL; with P. aeruginosa PAO397 it was less than 1 µg/mL; in assay [2], 1 to 16 µg/mL (≈ 2.45 to 39.3 µM).
Take `Cc1nnc(CN(Cc2ccc(C#N)cc2)C(=O)CSc2ccccc2Cl)o1` [Compound No. 65, 2-(2-Chlorophenyl)sulfanyl-N-[(4-cyanophenyl)methyl]-N-[(5-methyl-1,3,4-oxadiazol-2-yl)methyl]acetamide]: the MIC in assay [1] was more than 64 µg/mL; in the assay on P. aeruginosa PAO397, 1 to 16 µg/mL (≈ 2.42 to 38.8 µM); in assay [2] it was more than 64 µg/mL.
Turning to `N#Cc1cc(F)c(CN(Cc2nnc(N)o2)C(=O)CSc2cc(F)cc(F)c2Cl)c(F)c1` [compound 26], the MIC is more than 64 µg/mL in assay [1], 1 to 16 µg/mL (≈ 2.06 to 32.9 µM) against P. aeruginosa LESB58, less than 1 µg/mL with P. aeruginosa PAO397 and less than 1 µg/mL in assay [2].

Source of the values: US20240166612A1, “ARYLTHIOETHER ACETAMIDE AND RELATED COMPOUNDS AND THEIR USE IN TREATING MEDICAL CONDITIONS” (X-Biotix Therapeutics, Inc., priority 2021, published 2024).
